Tests used:
[1] = test system: human gastric adenocarcinoma (SCM-1); assay: MTT cytotoxicity assay, SCM-1; type: cell-based; conditions: read-out: IC50 SCM-1
[2] = test system: human oral squamous cell carcinoma (SCC2095); assay: MTT cytotoxicity assay, SCC2095; type: cell-based; conditions: read-out: IC50 SCC2095
[3] = test system: human breast adenocarcinoma (MCF-7); assay: MTT cytotoxicity assay, MCF-7; type: cell-based; conditions: MCF7, read-out: IC50 MCF-7
[4] = test system: human leukemia MOLT-4 cell line; conditions: cited from earlier work
[5] = test system: colchicine resistant KB-C2 cell lines; conditions: cited from earlier work

Compound | IC50 [1] [µM] | IC50 [2] [µM] | also measured
CC[C@H](CC[C@@H](C)[C@H]1CC[C@H]2[C@@H]3[C@H](O)C=C4C[C@@H](O)CC[C@]4(C)[C@H]3CC[C@]12C)C(C)C [Compound 8, (3β,7α)-stigmast-5-ene-3,7-diol] | > 30 | > 30 | IC50 [3]: > 30 µM
COc1cc(C=O)cc(OC)c1O [Compound 14, 4-hydroxy-3,5-dimethoxybenzaldehyde] | > 10 | > 10 | IC50 [3]: > 10 µM
COc1cc([C@@H]2c3cc4c(cc3[C@@H](O[C@@H]3O[C@@H]5CO[C@@H](C)O[C@H]5[C@H](O)[C@H]3O)[C@H]3COC(=O)[C@H]23)OCO4)cc(OC)c1O [Etoposide] |  | 2.5 ± 0.2 | 
CC(=O)O[C@H]1C(=O)[C@@]2(C)[C@H]([C@H](OC(=O)c3ccccc3)[C@]3(O)C[C@H](OC(=O)[C@H](O)[C@@H](NC(=O)c4ccccc4)c4ccccc4)C(C)=C1C3(C)C)[C@]1(OC(C)=O)CO[C@@H]1C[C@@H]2O [Paclitaxel] | 0.07 ± 0.002 |  | 
CC(=O)OC[C@H]1O[C@@H](O[C@@H]2C[C@H]3C(C)(C)[C@H](OC(C)=O)CC[C@]3(C)[C@H]3CC[C@]45C[C@]4(CC[C@H]5[C@@H](C)C[C@@H](O)[C@H](O)C(C)(C)O)[C@@]32C)[C@H](O)[C@@H](O)[C@@H]1O [cumingianoside A] |  |  | ED50 cytotoxicity MOLT-4 [4]: < 6.25 ng/mL
COC(C)(C)[C@@H](O)[C@H](O)C[C@H](C)[C@@H]1CC[C@]23C[C@]12CC[C@@H]1[C@@]2(C)CC[C@@H](OC(C)=O)C(C)(C)[C@@H]2C[C@@H](O[C@@H]2O[C@H](COC(C)=O)[C@@H](O)[C@H](O)[C@H]2O)[C@]13C [cumingianoside C] |  |  | ED50 cytotoxicity MOLT-4 [4]: < 4.5 ng/mL
cumingianol B |  |  | cytotoxicity against multi-drug resistant KB-C2 cancer cells (in words) [5]: enhanced cytotoxicity
dycusin A |  |  | cytotoxicity against multi-drug resistant KB-C2 cancer cells (in words) [5]: enhanced cytotoxicity
